Where a SMILES comes first, the peptide text is derived from it. The star is where a group is joined. Cbz = O=C(OCc1ccccc1)*; CH2F = FC*
Tests used:
SU-DHL-4 = assay: four-day cell proliferation test, parent cell line; type: cell-based, human; settings: SU-DHL-4, four-day cell proliferation test
[1] = system: obinutuzumab-directed cell death-tolerant clones 1A2, 1D2, 3A4 (derived from SU-DHL-4)
Protocol: The human germinal center B-cell-like diffuse large B-cell lymphoma cell line SU-DHL-4 was treated with 100 μg/mL of N-ethyl-N-nitrosourea for 24 hours to randomly introduce gene mutations. Thereafter, obinutuzumab was added to 200 μg/mL, and culturing was carried out at 37° C. in the presence of 5% CO2 for three weeks.
(§1) After four days of culturing at 37° C. in the presence of 5% CO2, the number of viable cells was measured using CellTiter-Glo 3D Cell Viability Assay (Promega). […] The effects of the combined use were assessed by numerical values obtained as follows: login (proportion of cell proliferation when both agents were added)—log10 (proportion of cell proliferation when obinutuzumab was added alone)—log10 (proportion of cell proliferation when the anti-cancer agent was added alone). Here, for the combined use, a numerical value of less than 0 means a supra-additive effect, 0 means an additive effect, and greater than 0 means a sub-additive effect (J Biopharm Stat. 2012; 22(3): 535-543).

[2] = system: RL parent cell line and ADCC-tolerant cell lines RL-E300-1, RL-E300-2, RL-E300-8, RL-E300-22; assay: ADCC sensitivity (calcein release, CD16(158V)/NK-92 effector cells); type: cell-based, human; settings: ET ratio 1:1
Protocol: Obinutuzumab was added at a concentration of 0.0001-100 ng/mL. CD16(158V)/NK-92 cells were added as effector cells to achieve an ET ratio of 1:1 and the cells were incubated at 37° C. for four hours. In addition, for Maximum Lysis, 1% Triton X-100 was added. After the plates were centrifuged and the supernatants were collected, calcein fluorescence was measured using a plate reader. ADCC sensitivity was assessed with the expression (measurement−background)/(Maximum Lysis−background)×100 (%).
The parent RL cell line and the tolerant cell lines were pre-cultured, with prednisolone (10 μM) added, at 37° C. for 72 hours. […] Obinutuzumab was added at a concentration of 1 ng/mL. CD16(158V)/NK-92 cells were added thereto as effector cells to achieve an ET ratio of 1:1, and the cells were incubated at 37° C. for four hours. In addition, for Maximum Lysis, 1% Triton X-100 was added. After the plates were centrifuged and the supernatants were collected, calcein fluorescence was measured using a plate reader. ADCC sensitivity was assessed with the expression (measurement−background)/(Maximum Lysis−background)×100 (%).

[3] = system: obinutuzumab-directed cell death-tolerant clone 1A2; settings: four days; for effect of combined use with obinutuzumab (Bliss independence): log10(both agents) - log10(obinutuzumab alone) - log10(anti-cancer agent alone): obinutuzumab 1 μg/mL + 4-hydroperoxycyclophosphamide 100 nM, doxorubicin 10 nM, vincristine 1 nM or prednisolone 1 μM, <0 supra-additive, 0 additive, >0 sub-additive
Protocol: as §1
The obinutuzumab-directed cell death-tolerant clone 1A2 was seeded at 1×10^4 cells per well in 96-well plates, and obinutuzumab (0.00015-10 μg/mL) and prednisolone (0.2, 1 μM) were added. After four days of culturing at 37° C. in the presence of 5% CO2, the number of viable cells was measured using CellTiter-Glo 3D Cell Viability Assay (Promega).
(§2) After four days of culturing at 37° C. in the presence of 5% CO2, the number of viable cells was measured using CellTiter-Glo 3D Cell Viability Assay (Promega).
as §2

[4] = system: obinutuzumab-directed cell death-tolerant clone 1D2; assay: combined-use cell proliferation test (CellTiter-Glo 3D), clone 1D2; type: cell-based, human; settings: obinutuzumab 1 μg/mL + 4-hydroperoxycyclophosphamide 100 nM, doxorubicin 10 nM, vincristine 1 nM or prednisolone 1 μM, four days, <0 supra-additive, 0 additive, >0 sub-additive
Protocol: as §1

[5] = system: CD20 on RL parent and ADCC-tolerant cell lines; assay: CD20 expression by FACS; type: cell-based, human; settings: prednisolone 10 μM, 72 hours; parent RL cell line and tolerant cell lines; FIG. 10
Protocol: The parent RL cell line and the tolerant cell lines were seeded at 4×10^5 cells per plate, prednisolone (10 μM) was added, and the cells were cultured at 37° C. for 72 hours. The cells were collected and stained with a control IgG antibody or an anti-CD20 antibody (BD Biosciences), and analysis of CD20 expression was carried out using FACS Fortessa (Becton Dickinson).

[6] = system: obinutuzumab-directed cell death-tolerant clone 3A4; settings: obinutuzumab 1 μg/mL + 4-hydroperoxycyclophosphamide 100 nM, doxorubicin 10 nM, vincristine 1 nM or prednisolone 1 μM, four days, <0 supra-additive, 0 additive, >0 sub-additive
Protocol: as §1

[7] = system: obinutuzumab-directed cell death-tolerant clone 1A2; type: cell-based; settings: Z-VAD-FMK 40 μM added to obinutuzumab 1 μg/mL + doxorubicin 10 nM, 72 hours, FIG. 7
Protocol: […] After 72 hours of culturing at 37° C. in the presence of 5% CO2, cells were stained with APO-BrdU TUNEL Assay Kit (Thermo Fisher).
After 72 hours of culturing at 37° C. in the presence of 5% CO2, cells were stained with APO-BrdU TUNEL Assay Kit (Thermo Fisher).

In the case of “obinutuzumab: glycoengineered, genetically recombinant humanized anti-CD20 monoclonal antibody, type II anti-CD20 antibody”, the “obinutuzumab concentration for 50% cell proliferation inhibition” value (SU-DHL-4) is reported as 0.037 µg/mL, the “obinutuzumab concentration for 50% cell proliferation inhibition” value [1] is reported as “at least 200 μg/mL” and the “ADCC sensitivity of ADCC-tolerant cell lines compared with the parent cell line” value ([2]; obinutuzumab 0.0001-100 ng/mL, four hours, FIG. 9) is reported as “significant reduction in ADCC sensitivity”.

For `CC[C@]1(O)C[C@H]2CN(CCc3c([nH]c4ccccc34)[C@@](C(=O)OC)(c3cc4c(cc3OC)N(C=O)[C@H]3[C@@](O)(C(=O)OC)[C@H](OC(C)=O)[C@]5(CC)C=CCN6CC[C@]43[C@@H]65)C2)C1` [vincristine], the “effect of combined use with obinutuzumab (Bliss independence): log10(both agents) - log10(obinutuzumab alone) - log10(anti-cancer agent alone)” value (from here on “effect … - log10(anti-cancer agent alone)”) [3] was −0.35 and the “effect … - log10(anti-cancer agent alone)” value [4] was −0.10.

`C[C@]12C=CC(=O)C=C1CC[C@@H]1[C@@H]2[C@@H](O)C[C@@]2(C)[C@H]1CC[C@]2(O)C(=O)CO` [prednisolone] was tested, and the “effect … - log10(anti-cancer agent alone)” value [4] was −0.10, the “ADCC sensitivity after prednisolone pre-treatment” value ([2]; prednisolone 10 μM 72 hours pre-culture, then obinutuzumab 1 ng/mL, parent and tolerant cell lines, FIG. 11) was “enhances ADCC sensitivity” and the CD20 expression [5] was “enhances CD20 expression”.

With `O=P1(N(CCCl)CCCl)NC(OO)CCO1` (centres unmarked) [4-hydroperoxycyclophosphamide] the “effect of combined use with obinutuzumab, in words” value ([1]; all tolerant clones, combined with obinutuzumab 1 μg/mL, four days) was “approximately additive effects”, the “effect … - log10(anti-cancer agent alone)” value [3] was −0.03 and the “effect … - log10(anti-cancer agent alone)” value [4] was 0.02. The “effect … - log10(anti-cancer agent alone)” value [6] was 0.00.

In the case of `COC(=O)C[C@H](NC(=O)[C@H](C)NC(=O)[C@@H](NC(=O)OCc1ccccc1)C(C)C)C(=O)CF` [Z-VAD-FMK] (Cbz-Val-Ala-Asp(OMe)-CH2F), the “cell proliferation ratio with pan caspase inhibitor” value ([3]; Z-VAD-FMK 40 μM added to obinutuzumab 0.1, 1 μg/mL + doxorubicin 10 nM, FIG. 8) is reported as “suppressed the doxorubicin-enhanced inhibitory activity of obinutuzumab on cell proliferation” and the “DNA fragmentation (TUNEL) induced by obinutuzumab and doxorubicin, with pan caspase inhibitor” value [7] is reported as “suppressed”.
